Measured values: US20190184064A1, “Composition for Soft Tissue Augmentation Providing Protection from Infection” (priority 2015, published 2019)

Key:
[1] = tested on: Stapylococcus aureus (SA 113); assay: Solution exposure of antimicrobial hyaluronic acid hydrogels to living cultures (SA 113); format: cell-based; conditions: 20 μl early phase culture in 980 μl formulation
Experimental: (§1) By way of Examples, the following evaluations were done to assess the performance of the antimicrobial hyaluronic acid gels. Solution exposure of the antimicrobial hyaluronic acid hydrogels immersed in early phase concentrations of 2 test microorganisms were conducted. Additionally, the physical properties of the hydrogels were assessed to determine their shear/thixotropic properties.
(§2) In this study, two strains of bacteria, namely Pseudomonas aeruginosa (PAO1) and Stapylococcus aureus (SA 113) were evaluated for total kill of each of the strains after 4 and 24 hours of exposure to the taurolidine-HA formulation. 20 μl of early phase culture of each strain was placed in 980 μl of each Hyaluronic Acid formulation. Samples of remaining bacteria concentrations were determined for the samples after 4 and 24 hours of exposure. Two controls (with and without HA), and HA gels with 3 different drug concentrations were evaluated. They were also evaluated against a known antimicrobial, gentamicin.

[2] = tested on: Pseudomonas aeruginosa (PAO1); assay: Solution exposure of antimicrobial hyaluronic acid hydrogels to living cultures (PAO1); format: cell-based; conditions: 20 μl early phase culture in 980 μl formulation
Experimental: as §1, §2

Substance: gentamicin
- SA113 (4 hr) remaining bacteria concentration ([1]; 4 hours of exposure): 3.77E+02
- SA113 (24 hr) remaining bacteria concentration ([1]; 24 hours of exposure): 8.33E+00
- PA01 (4 hr) remaining bacteria concentration ([2]; 4 hours of exposure): 0.00E+00
- PA01 (24 hr) remaining bacteria concentration ([2]; 24 hours of exposure): 0.00E+00
